# According to the RepoRT retention time repository (doi:10.1038/sdata.2014.29):
# Assay: RP, Waters ACQUITY UPLC HSS T3, 150 × 2 mm, 1.7 µm, 30 °C, 0.4 mL/min, estimated dead time 0.75 min; A: water + 0.2% formic acid; B: 2% water + 98% acetonitrile + 0.2% formic acid; gradient (min/%B) 0/0 2.5/0 7.5/10 10/100 12/100 18/0 25/0
# Settings: stereoisomer not certain
row,SMILES,LC retention time
1,O=C(C=Cc1ccc(O)c(O)c1)OC1CC(O)(C(=O)O)CC(O)C1O (stereo not given) [chlorogenic acid],9.09 min
2,O=P([O-])([O-])OP(=O)([O-])[O-] [diphosphate(4-)],1.47 min
3,O=C(O)[C@H](O)[C@@H](O)[C@H](O)[C@H](O)COP(=O)(O)O [6-phospho-D-gluconic acid],1.55 min
4,CS(=O)(=O)CCC(N)C(=O)O (stereo not given) [methionine sulfone],1.9 min
5,O=P(O)(O)OC(CO)CO [glycerol 2-phosphate],1.53 min
6,Nc1ncnc2c1ncn2C1OC(CO)C(O)C1O (stereo not given) [adenosine],6.01 min
7,COC(=O)[C@@H](N)Cc1ccc(O)cc1 [methyl L-tyrosinate],10.7 min
8,CC1(C)SC2C(NC(=O)C(C(=O)O)c3ccccc3)C(=O)N2C1C(=O)O (stereo not given) [carbenicillin],1.73 min
9,CC(=O)NC=CSC1=C(C(=O)O)N2C(=O)C(C(C)OS(=O)(=O)O)C2C1 (stereo not given) [epithienamycin E],4.43 min
10,O=C(CO)CO [glycerone],3.02 min
11,O=C(O)C(=O)[C@H](O)COP(=O)(O)O [(R)-3-hydroxy-2-oxo-4-phosphonooxybutanoic acid],9.3 min
12,CC1=CC2=CC(C)CC23OC(=C(C)C3=O)CC(C)(C)C=CC1=O (stereo not given) [jatrophone],10.2 min
13,NC(=O)C[C@H](N)C(=O)O [L-asparagine],1.48 min
14,C=CC#CC#CC1=CC=C(C#CC)SS1 [thiarubrine A],1.97 min
15,CC(C)CC(=O)C(=O)O [4-methyl-2-oxopentanoic acid],9.46 min
16,"O=C1O[C@H](CO)[C@@H](O)[C@H](O)[C@H]1O [D-glucono-1,5-lactone]",2.02 min
17,NC(CCC(=O)O)C(=O)O (stereo not given) [glutamic acid],1.62 min
18,O=C(O)CCC(=O)C(=O)O [2-oxoglutaric acid],3.04 min
19,O=C(O)[C@H](O)[C@@H](O)[C@H](O)CO [D-xylonic acid],1.69 min
20,Nc1ncnc2c1ncn2[C@@H]1O[C@H](CSCC[C@H]([NH3+])C(=O)[O-])[C@@H](O)[C@H]1O [S-adenosyl-L-homocysteine],1.92 min

row,SMILES,LC retention time
1,N[C@@H](CC(=O)O)C(=O)O [L-aspartic acid],1.53 min
2,O=C(O)C=Cc1ccc(O)cc1 [4-coumaric acid],8.99 min
3,"CC(C=CC1(O)C(C)=CC(=O)CC1(C)C)=CC(=O)O (single isomer, unassigned; (+)) [(+)-abscisic acid]",10.1 min
4,O=P(O)(O)OCC1OC(CO)(OC2OC(CO)C(O)C(O)C2O)C(O)C1O (stereo not given) [sucrose 6(F)-phosphate],1.81 min
5,O=C(O)/C=C/c1ccc(O[C@@H]2O[C@H](CO)[C@@H](O)[C@H](O)[C@H]2O)cc1 [4-O-beta-D-glucosyl-4-coumaric acid],9.11 min
6,O=C(COP(=O)(O)O)Cc1cnc[nH]1 [3-(imidazol-4-yl)-2-oxopropyl dihydrogen phosphate],2.09 min
7,CCCCCCCCCCCCOCCOCCOCCOCCOCCO [pentaethylene glycol monododecyl ether],11.8 min
8,O=C(CO)COP(=O)(O)O [glycerone phosphate],9.3 min
9,CC(=O)OC1CC(C)C(C=O)C2(O)C1C(C)(C)CC2(C)C=O (stereo not given) [botrydial],13.5 min
10,O=C(O)CC(O)C(=O)O (stereo not given) [malic acid],2.44 min
11,"C=CC=C(O)C(=O)O [cis-2-hydroxypenta-2,4-dienoic acid]",1.68 min
12,O=C([O-])C(O)C(O)C(O)C(O)C(=O)[O-] (stereo not given) [glucarate(1-)],1.57 min
13,C#CC1(OC(C)=O)CCC2C3CCC4=CC(=O)CCC4C3CCC21C (stereo not given) [norethindrone acetate],10.5 min
14,O=C(O)C=Cc1ccc(O)c(OC2OC(CO)C(O)C(O)C2O)c1 (stereo not given) [Caffeic acid 3-glucoside],8.96 min
15,N#CCC(N)C(=O)O (stereo not given) [3-cyanoalanine],1.51 min
16,O=C(O)CCCCCCCC(=O)O [azelaic acid],9.61 min
17,O=C(O)CC(=O)O [malonic acid],2.64 min
18,"O[C@@H]1c2c(sc3ccccc23)C=C[C@@H]1O (relative stereo) [cis-1,2-dihydroxy-1,2-dihydrodibenzothiophene]",1.64 min
19,O=C(O)c1ccco1 [2-furoic acid],4.46 min

# The remaining lines, values ahead:
row,LC retention time,SMILES
1,2.79 min,O=C(O)C1CCCCN1 (stereo not given) [pipecolic acid]
2,1.64 min,C[C@](O)(CO)[C@H](O)COP(=O)(O)O [2-C-methyl-D-erythritol 4-(dihydrogen phosphate)]
3,1.92 min,O=C(O)C(O)CO (stereo not given) [glyceric acid]
4,1.61 min,O=C(O)C1OC(O)C(O)C(O)C1O (stereo not given) [Glucuronic Acid]
5,4.6 min,CC(=O)C(=O)O [pyruvic acid]
6,1.67 min,CC(C(=O)[O-])=C(C)C(=O)[O-] [dimethylmaleate(2-)]
7,1.88 min,OCC1OC(OC2(COC3(CO)OC(CO)C(O)C3O)OC(CO)C(O)C2O)C(O)C(O)C1O (stereo not given) [1-kestose]
8,1.57 min,C[N+](C)(C)CC(=O)[O-] [glycine betaine]
9,1.61 min,O=C(O)[C@H](O)[C@@H](O)[C@H](O)[C@H](O)CO [D-gluconic acid]
10,1.67 min,O=C[C@H](O)[C@H](O)CO [D-erythrose]
11,1.62 min,OCC=Cc1ccc(O)cc1 [4-hydroxycinnamyl alcohol]
12,5.35 min,O=C(O)CCC(=O)O [succinic acid]
13,4.72 min,O=C1CC[C@@H](C(=O)O)N1 [5-oxo-L-proline]
14,5.79 min,O=c1ccn(C2OC(CO)C(O)C2O)c(=O)[nH]1 (stereo not given) [uridine]
15,5.34 min,CC[C@H](C)[C@H](N)C(=O)O [L-isoleucine]
16,6.32 min,Nc1nc2c(ncn2C2OC(CO)C(O)C2O)c(=O)[nH]1 (stereo not given) [guanosine]

row,LC retention time,SMILES
1,8.87 min,NC(Cc1c[nH]c2ccccc12)C(=O)O (stereo not given) [tryptophan]
2,1.75 min,O=c1[nH]cnc2nc[nH]c12 [hypoxanthine]
3,9.43 min,O=C(O)CCCCCCC(=O)O [suberic acid]
4,1.66 min,COc1c2ccoc2c(OC)c2oc(=O)ccc12 [isopimpinellin]
5,4.46 min,O=C(O)C=C(CC(=O)O)C(=O)O [cis-aconitic acid]
6,1.58 min,"OCC1OC(OC2OC(CO)C(O)C(O)C2O)C(O)C(O)C1O (stereo not drawn) [alpha,alpha-trehalose]"
7,9.88 min,O=C(O)c1ccc(O)cc1 [4-hydroxybenzoic acid]
8,1.44 min,C[C@H]([NH3+])C(=O)[O-] [L-alanine]
9,1.58 min,O=C(O)C1OC(OC2C(C(=O)O)OC(O)C(O)C2O)C(O)C(O)C1O (stereo not given) [digalacturonic acid]
10,11.6 min,CC(=O)OC(C)(C)C1CCC2(C)COC3(C)C=COC23C1 (stereo not given) [AC1L9CQ2]
11,1.43 min,NC(Cc1cnc[nH]1)C(=O)O (stereo not given) [histidine]
12,2.28 min,O=C(O)CCCCC1CCSS1 [(R)-lipoic acid]
13,4.71 min,O=C(O)c1nc2[nH]c(=O)[nH]c(=O)c2[nH]1 [xanthine-8-carboxylic acid]
14,1.76 min,NC(=O)NC1NC(=O)NC1=O (stereo not given) [allantoin]
15,2.46 min,O=C(O)C=CC(=O)O [fumaric acid]
